Columns and labels:
Test in all cases: KinomeScan kinase profiling
Assay type in all cases: binding
YES = target: T1, YES (Homo sapiens, UniProt P07947)
T1 construct: purchased Ambit Biosciences (San Diego, Calif.)
Text: (§1) The selectivity of a given CK1δ, CK1ε or CK1δ-CK1ε inhibitor compound can be determined by testing the compound against a panel of known kinases. An example of such a kinase profiling technology is the “KinomeScan” from Ambit Biosciences in which compounds can be screened for their modulatory activities against more than 200 known kinases.

CAMK2G = target: T2, CAMK2G (Homo sapiens, UniProt Q13555)
T2 construct: purchased Ambit Biosciences (San Diego, Calif.)
Text: as §1

STK36 = target: T3, STK36 (Homo sapiens, UniProt Q9NRP7)
T3 construct: purchased Ambit Biosciences
Text: as §1

EPHB1 = target: T4, EPHB1 (Homo sapiens, UniProt P54762)
T4 construct: purchased Ambit Biosciences (San Diego, Calif.)
Text: as §1

PAK3 = target: T5, PAK3 (Homo sapiens, UniProt O75914)
T5 construct: purchased Ambit Biosciences (San Diego, Calif.)
Text: as §1

RPS6KA5 = target: T6, RPS6KA5 (Homo sapiens, UniProt O75582)
T6 construct: purchased Ambit Biosciences
Text: as §1

FYN = target: T7, FYN (Homo sapiens, UniProt P06241)
T7 construct: purchased Ambit Biosciences (San Diego, Calif.)
Text: as §1

AAK1 = target: T8, AAK1 (Homo sapiens, UniProt Q2M2I8)
T8 construct: purchased Ambit Biosciences (San Diego, Calif.)
Text: as §1

PLK4 = target: T9, PLK4 (Homo sapiens, UniProt O00444)
T9 construct: purchased Ambit Biosciences (San Diego, Calif.)
Text: as §1

MARK2 = target: T10, MARK2 (Homo sapiens, UniProt Q7KZI7)
T10 construct: purchased Ambit Biosciences (San Diego, Calif.)
Text: as §1

STK10 = target: T11, STK10 (Homo sapiens, UniProt O94804)
T11 construct: purchased Ambit Biosciences
Text: as §1

ABL2 = target: T12, ABL2 (Homo sapiens, UniProt P42684)
T12 construct: purchased Ambit Biosciences (San Diego, Calif.)
Text: as §1

ULK3(mouse) = target: T13, ULK3(mouse) (Mus musculus, UniProt Q3U3Q1)
T13 construct: purchased Ambit Biosciences (San Diego, Calif.)
Text: as §1

EPHA6 = target: T14, EPHA6 (Homo sapiens, UniProt Q9UF33)
T14 construct: purchased Ambit Biosciences (San Diego, Calif.)
Text: as §1

RAF1 = target: T15, RAF1 (Homo sapiens, UniProt P04049)
T15 construct: purchased Ambit Biosciences
Text: as §1

CAMK1 = target: T16, CAMK1 (Homo sapiens, UniProt Q14012)
T16 construct: purchased Ambit Biosciences (San Diego, Calif.)
Text: as §1

PTK2 = target: T17, PTK2 (Homo sapiens, UniProt Q05397)
T17 construct: purchased Ambit Biosciences
Text: as §1

ERK2 = target: T18, ERK2 (Homo sapiens, UniProt P28482)
T18 construct: purchased Ambit Biosciences (San Diego, Calif.)
Text: as §1

ERBB4 = target: T19, ERBB4 (Homo sapiens, UniProt Q15303)
T19 construct: purchased Ambit Biosciences (San Diego, Calif.)
Text: as §1

MAP4K5 = target: T20, MAP4K5 (Homo sapiens, UniProt Q9Y4K4)
T20 construct: purchased Ambit Biosciences (San Diego, Calif.)
Text: as §1

ROS1 = target: T21, ROS1 (Homo sapiens, UniProt P08922)
T21 construct: purchased Ambit Biosciences
Text: as §1

PDPK1 = target: T22, PDPK1 (Homo sapiens, UniProt O15530)
T22 construct: purchased Ambit Biosciences (San Diego, Calif.)
Text: as §1

EPHA7 = target: T23, EPHA7 (Homo sapiens, UniProt Q15375)
T23 construct: purchased Ambit Biosciences (San Diego, Calif.)
Text: as §1

IGF1R = target: T24, IGF1R (Homo sapiens, UniProt P08069)
T24 construct: purchased Ambit Biosciences (San Diego, Calif.)
Text: as §1

MYLK2 = target: T25, MYLK2 (Homo sapiens, UniProt Q9H1R3)
T25 construct: purchased Ambit Biosciences (San Diego, Calif.)
Text: as §1

CSNK2A1 = target: T26, CSNK2A1 (Homo sapiens, UniProt P68400)
T26 construct: purchased Ambit Biosciences (San Diego, Calif.)
Text: as §1

CAMK1G = target: T27, CAMK1G (Homo sapiens, UniProt Q96NX5)
T27 construct: purchased Ambit Biosciences (San Diego, Calif.)
Text: as §1

JNK3 = target: T28, JNK3 (Homo sapiens, UniProt P53779)
T28 construct: purchased Ambit Biosciences (San Diego, Calif.)
Text: as §1

SRC = target: T29, SRC (Homo sapiens, UniProt P12931)
T29 construct: purchased Ambit Biosciences
Text: as §1

BLK = target: T30, BLK (Homo sapiens, UniProt P51451)
T30 construct: purchased Ambit Biosciences (San Diego, Calif.)
Text: as §1

BIKE = target: T31, BIKE (Homo sapiens, UniProt Q9NSY1)
T31 construct: purchased Ambit Biosciences (San Diego, Calif.)
Text: as §1

BTK = target: T32, BTK (Homo sapiens, UniProt Q06187)
T32 construct: purchased Ambit Biosciences (San Diego, Calif.)
Text: as §1

VEGFR2 = target: T33, VEGFR2 (Homo sapiens, UniProt P35968)
T33 construct: purchased Ambit Biosciences (San Diego, Calif.)
Text: as §1

FER = target: T34, FER (Homo sapiens, UniProt P16591)
T34 construct: purchased Ambit Biosciences (San Diego, Calif.)
Text: as §1

MKNK2 = target: T35, MKNK2 (Homo sapiens, UniProt Q9HBH9)
T35 construct: purchased Ambit Biosciences (San Diego, Calif.)
Text: as §1

NEK2 = target: T36, NEK2 (Homo sapiens, UniProt P51955)
T36 construct: purchased Ambit Biosciences (San Diego, Calif.)
Text: as §1

PDGFRB = target: T37, PDGFRB (Homo sapiens, UniProt P09619)
T37 construct: purchased Ambit Biosciences (San Diego, Calif.)
Text: as §1

CLK1 = target: T38, CLK1 (Homo sapiens, UniProt P49759)
T38 construct: purchased Ambit Biosciences (San Diego, Calif.)
Text: as §1

NEK6 = target: T39, NEK6 (Homo sapiens, UniProt Q9HC98)
T39 construct: purchased Ambit Biosciences (San Diego, Calif.)
Text: as §1

TIE2 = target: T40, TIE2 (Homo sapiens, UniProt Q02763)
T40 construct: purchased Ambit Biosciences
Text: as §1

Measured: inhibition at 10 µM

T18 sequence (P28482 whole entry): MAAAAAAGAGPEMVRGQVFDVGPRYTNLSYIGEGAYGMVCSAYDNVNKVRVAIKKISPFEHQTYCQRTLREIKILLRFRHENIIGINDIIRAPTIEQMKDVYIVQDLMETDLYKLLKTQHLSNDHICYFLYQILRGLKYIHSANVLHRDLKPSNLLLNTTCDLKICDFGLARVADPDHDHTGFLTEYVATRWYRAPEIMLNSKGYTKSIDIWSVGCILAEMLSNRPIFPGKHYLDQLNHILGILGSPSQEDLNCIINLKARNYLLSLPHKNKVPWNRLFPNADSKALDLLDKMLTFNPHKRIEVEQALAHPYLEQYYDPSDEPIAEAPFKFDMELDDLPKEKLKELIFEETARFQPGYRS
T40 sequence (Q02763 23-1124): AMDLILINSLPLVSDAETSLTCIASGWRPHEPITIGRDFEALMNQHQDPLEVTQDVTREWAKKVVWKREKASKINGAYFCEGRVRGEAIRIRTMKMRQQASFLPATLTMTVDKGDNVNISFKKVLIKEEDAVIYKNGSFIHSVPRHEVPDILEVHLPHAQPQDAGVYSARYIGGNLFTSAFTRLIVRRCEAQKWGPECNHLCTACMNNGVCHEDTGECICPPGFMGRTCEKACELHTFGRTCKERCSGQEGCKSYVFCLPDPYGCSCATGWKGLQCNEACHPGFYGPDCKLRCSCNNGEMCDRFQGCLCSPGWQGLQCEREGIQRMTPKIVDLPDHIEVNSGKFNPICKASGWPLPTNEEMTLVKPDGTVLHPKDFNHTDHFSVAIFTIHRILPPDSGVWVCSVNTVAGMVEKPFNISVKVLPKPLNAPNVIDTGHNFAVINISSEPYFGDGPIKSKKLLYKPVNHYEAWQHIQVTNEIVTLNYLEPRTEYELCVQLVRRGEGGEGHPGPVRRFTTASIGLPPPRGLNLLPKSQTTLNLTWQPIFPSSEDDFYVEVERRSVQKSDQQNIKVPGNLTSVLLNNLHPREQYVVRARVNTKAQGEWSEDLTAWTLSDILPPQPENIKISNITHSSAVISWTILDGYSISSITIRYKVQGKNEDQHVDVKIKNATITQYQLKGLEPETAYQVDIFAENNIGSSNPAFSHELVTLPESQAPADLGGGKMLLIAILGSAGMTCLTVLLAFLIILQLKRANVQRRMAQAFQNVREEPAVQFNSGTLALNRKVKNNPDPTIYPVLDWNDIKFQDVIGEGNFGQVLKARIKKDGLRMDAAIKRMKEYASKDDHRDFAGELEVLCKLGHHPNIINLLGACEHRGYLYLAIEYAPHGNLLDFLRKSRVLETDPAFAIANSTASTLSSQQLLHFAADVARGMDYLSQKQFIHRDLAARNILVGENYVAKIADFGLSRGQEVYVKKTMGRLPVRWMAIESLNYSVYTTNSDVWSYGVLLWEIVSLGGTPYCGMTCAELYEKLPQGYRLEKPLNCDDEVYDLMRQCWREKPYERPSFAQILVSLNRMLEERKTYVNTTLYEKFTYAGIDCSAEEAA
T32 sequence (Q06187 whole entry): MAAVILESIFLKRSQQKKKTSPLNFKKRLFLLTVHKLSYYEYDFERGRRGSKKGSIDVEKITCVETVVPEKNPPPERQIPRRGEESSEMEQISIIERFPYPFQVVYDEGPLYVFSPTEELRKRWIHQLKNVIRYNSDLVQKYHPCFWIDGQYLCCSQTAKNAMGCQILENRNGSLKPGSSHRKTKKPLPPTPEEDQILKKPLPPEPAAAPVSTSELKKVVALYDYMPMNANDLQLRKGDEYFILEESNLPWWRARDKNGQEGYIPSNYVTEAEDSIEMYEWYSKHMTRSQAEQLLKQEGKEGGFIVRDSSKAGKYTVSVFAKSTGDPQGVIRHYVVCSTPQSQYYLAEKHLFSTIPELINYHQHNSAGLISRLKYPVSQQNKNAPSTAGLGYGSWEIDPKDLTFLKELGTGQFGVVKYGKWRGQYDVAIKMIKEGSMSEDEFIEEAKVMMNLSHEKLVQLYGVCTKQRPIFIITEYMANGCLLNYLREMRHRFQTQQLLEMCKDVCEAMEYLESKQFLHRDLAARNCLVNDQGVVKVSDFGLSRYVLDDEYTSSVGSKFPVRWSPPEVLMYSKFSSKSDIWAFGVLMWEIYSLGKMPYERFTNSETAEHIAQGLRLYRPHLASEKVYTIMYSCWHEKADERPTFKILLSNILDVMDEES
T23 sequence (Q15375 28-998): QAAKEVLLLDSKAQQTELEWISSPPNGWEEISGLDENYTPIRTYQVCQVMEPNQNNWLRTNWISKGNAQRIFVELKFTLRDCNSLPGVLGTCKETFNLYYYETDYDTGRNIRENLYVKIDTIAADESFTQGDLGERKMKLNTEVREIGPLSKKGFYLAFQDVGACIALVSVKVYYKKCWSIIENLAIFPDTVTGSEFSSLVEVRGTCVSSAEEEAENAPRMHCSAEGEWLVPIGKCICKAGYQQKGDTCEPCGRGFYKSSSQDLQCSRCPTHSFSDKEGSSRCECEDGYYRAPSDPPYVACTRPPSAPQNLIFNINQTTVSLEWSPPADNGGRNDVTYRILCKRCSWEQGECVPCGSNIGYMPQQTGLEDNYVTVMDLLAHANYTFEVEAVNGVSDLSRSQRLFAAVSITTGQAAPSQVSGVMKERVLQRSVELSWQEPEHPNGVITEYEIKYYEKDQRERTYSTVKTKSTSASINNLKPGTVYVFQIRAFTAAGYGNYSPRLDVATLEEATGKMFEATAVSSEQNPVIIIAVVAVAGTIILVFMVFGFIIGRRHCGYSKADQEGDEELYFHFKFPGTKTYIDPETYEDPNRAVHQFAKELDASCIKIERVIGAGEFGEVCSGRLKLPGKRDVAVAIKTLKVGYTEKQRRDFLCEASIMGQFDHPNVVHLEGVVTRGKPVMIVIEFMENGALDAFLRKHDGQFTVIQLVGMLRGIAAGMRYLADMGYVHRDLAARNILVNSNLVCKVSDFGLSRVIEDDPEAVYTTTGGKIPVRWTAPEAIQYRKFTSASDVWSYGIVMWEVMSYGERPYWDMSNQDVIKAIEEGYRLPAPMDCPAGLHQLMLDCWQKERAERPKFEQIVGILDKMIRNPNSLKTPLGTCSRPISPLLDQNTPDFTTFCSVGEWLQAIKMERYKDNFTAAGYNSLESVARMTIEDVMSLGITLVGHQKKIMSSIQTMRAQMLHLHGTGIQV
T34 sequence (P16591 whole entry): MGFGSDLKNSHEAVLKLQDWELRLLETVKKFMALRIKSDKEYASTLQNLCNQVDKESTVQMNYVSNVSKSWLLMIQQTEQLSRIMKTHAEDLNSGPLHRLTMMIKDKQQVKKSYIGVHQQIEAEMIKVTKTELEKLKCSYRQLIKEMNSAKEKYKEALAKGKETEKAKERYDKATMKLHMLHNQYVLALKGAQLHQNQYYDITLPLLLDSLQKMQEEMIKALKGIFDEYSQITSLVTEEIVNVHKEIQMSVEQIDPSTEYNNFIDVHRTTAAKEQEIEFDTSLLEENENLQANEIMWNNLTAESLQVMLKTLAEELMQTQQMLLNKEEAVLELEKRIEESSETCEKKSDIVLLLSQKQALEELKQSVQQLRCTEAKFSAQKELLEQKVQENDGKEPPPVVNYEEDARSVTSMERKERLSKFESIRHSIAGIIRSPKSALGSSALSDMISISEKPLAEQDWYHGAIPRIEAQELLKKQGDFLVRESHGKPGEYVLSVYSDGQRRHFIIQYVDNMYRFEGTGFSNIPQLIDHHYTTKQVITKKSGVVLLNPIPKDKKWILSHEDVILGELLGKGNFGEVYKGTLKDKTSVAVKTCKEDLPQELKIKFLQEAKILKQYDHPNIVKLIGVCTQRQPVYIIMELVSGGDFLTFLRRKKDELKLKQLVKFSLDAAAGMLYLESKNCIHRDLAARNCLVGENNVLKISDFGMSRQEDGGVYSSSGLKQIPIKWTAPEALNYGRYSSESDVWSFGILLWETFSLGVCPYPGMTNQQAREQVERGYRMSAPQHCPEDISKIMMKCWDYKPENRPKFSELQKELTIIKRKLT
T7 sequence (P06241 whole entry): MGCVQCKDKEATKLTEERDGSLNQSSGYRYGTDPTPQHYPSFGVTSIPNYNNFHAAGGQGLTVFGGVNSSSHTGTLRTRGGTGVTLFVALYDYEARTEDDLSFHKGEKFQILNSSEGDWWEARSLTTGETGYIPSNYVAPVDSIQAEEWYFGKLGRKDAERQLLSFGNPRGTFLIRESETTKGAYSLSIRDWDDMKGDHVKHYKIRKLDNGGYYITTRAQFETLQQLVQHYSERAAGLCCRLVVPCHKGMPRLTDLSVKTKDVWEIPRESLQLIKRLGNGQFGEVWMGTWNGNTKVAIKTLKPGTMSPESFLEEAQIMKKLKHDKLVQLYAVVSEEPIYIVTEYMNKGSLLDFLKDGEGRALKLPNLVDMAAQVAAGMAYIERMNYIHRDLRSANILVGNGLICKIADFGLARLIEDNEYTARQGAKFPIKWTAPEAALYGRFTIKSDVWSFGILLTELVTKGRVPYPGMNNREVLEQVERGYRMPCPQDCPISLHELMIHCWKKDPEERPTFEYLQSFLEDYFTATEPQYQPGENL
T26 sequence (P68400 whole entry): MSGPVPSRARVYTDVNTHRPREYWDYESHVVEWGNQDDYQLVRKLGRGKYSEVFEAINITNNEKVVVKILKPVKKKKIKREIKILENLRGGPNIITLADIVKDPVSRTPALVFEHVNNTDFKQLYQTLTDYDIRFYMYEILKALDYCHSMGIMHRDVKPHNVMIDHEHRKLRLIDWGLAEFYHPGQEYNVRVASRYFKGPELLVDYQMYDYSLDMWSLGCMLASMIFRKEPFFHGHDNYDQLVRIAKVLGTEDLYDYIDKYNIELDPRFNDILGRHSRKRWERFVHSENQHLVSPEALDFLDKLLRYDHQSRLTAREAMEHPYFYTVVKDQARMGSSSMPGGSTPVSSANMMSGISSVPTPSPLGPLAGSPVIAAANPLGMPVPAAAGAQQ

NC(=O)c1ccc(-c2nc(-c3ccc4c(c3)OCO4)c(-c3ccccn3)[nH]2)cc1 [SB431542, 4-(4-benzo-[1,3]dioxol-5-yl-5-pyridin-2-yl-1H-imidazol-2-yl)benzamide]
< 50%: all assays above

NC(=O)c1ccc(-c2nc(-c3ccc4c(c3)OCCO4)c(-c3ccccn3)[nH]2)cc1 [D4476, 4-[4-(2,3-Dihydro-benzo[1,4]dioxin-6-yl)-5-pyridin-2-yl-1H-imidazol-2-yl]benzamide]
< 50%: all assays above
